Source: article PMC8159961, “Exploring protein hotspots by optimized fragment pharmacophores” (Nature Communications, 2021)
Several values for one entry are separate records, joined by “and”; a condition that tells them apart may be missing. Equal entries are not always repeated. Where two headings read alike, the source gives them in different places.

How the values were obtained:
[1] = molecular target: SARS-CoV-2 3CLPro (Severe acute respiratory syndrome coronavirus 2, UniProt P0DTD1); test: biochemical
[2] = tested on: SARS-CoV-2; test: microbe, parasite or virus in culture; assay type: cell-based

CS(=O)(=O)c1ccc(N2CCNCC2)cc1 [SX013] was tested, and the IC50 [1] was 31 µM, the “Inhibition (%)” value ([2]; 10 uM, Vero E6, replicates) was 0% (2×) and 3.199% and the “viral copy numbers normalized to the control (untreated infected cells)” value (shortened to “viral copy numbers normalized”) ([2]; 10 uM, Vero E6, replicates) was 1.473 and 0.968 and 1.581. The “Inhibition (%)” value ([2]; 100 uM, Vero E6, replicates) was 10.36% and 9.981% and 0%, the “viral copy numbers normalized” value ([2]; 100 uM, Vero E6, replicates) was 0.8964 and 0.9002 and 2.418 and the “Inhibition (%)” value ([2]; 250 uM, Vero E6, replicates) was 47.65% and 50.9%. The “viral copy numbers normalized” value ([2]; 250 uM, Vero E6, replicates) was 0.5487 and 0.5235 and 0.491, the “Inhibition (%)” value ([2]; 500 uM, Vero E6, replicates) was 62.09% and 74.66% and the “viral copy numbers normalized” value ([2]; 500 uM, Vero E6, replicates) was 0.2563 and 0.3791 and 0.2534. The “Inhibition (%)” value ([2]; 750 uM, Vero E6, replicates) was 96.1% and 86.32%, the “viral copy numbers normalized” value ([2]; 750 uM, Vero E6, replicates) was 0.06859 and 0.03899 and 0.1368 and the “Inhibition (%)” value ([2]; 1000 uM, Vero E6, replicates) was 99.81%. For the same compound, the “viral copy numbers normalized” value ([2]; 1000 uM, Vero E6, replicates) was 0.003839 and 0.001919 and 0, the “Inhibition (%)” value ([2]; 1500 uM, Vero E6, replicates) was 99.97% and the “viral copy numbers normalized” value ([2]; 1500 uM, Vero E6, replicates) was 0 (2×) and 0.000289. The inhibition at 250 µM ([2]; Severe acute respiratory syndrome coronavirus 2, Vero C1008, 250 uM, Vero E6, replicates) was 45.1%, the inhibition at 500 µM ([2]; Severe acute respiratory syndrome coronavirus 2, Vero C1008, 500 uM, Vero E6, replicates) was 74.4% and the inhibition at 750 µM ([2]; Severe acute respiratory syndrome coronavirus 2, Vero C1008, 750 uM, Vero E6, replicates) was 93.1%. The inhibition at 1000 µM ([2]; Severe acute respiratory syndrome coronavirus 2, Vero C1008, 1000 uM, Vero E6, replicates) was 99.6%, the inhibition at 1500 µM ([2]; Severe acute respiratory syndrome coronavirus 2, Vero C1008, 1500 uM, Vero E6, replicates) was 100% and the EC50 ([2]; Severe acute respiratory syndrome coronavirus 2, Vero C1008, 48 h, read-out: EC50, blocking SARS-CoV-2 replication, Vero E6 cells, 48 h post infection) was 304 µM. For the same compound, the EC50 ([2]; read-out: EC50, blocking SARS-CoV-2 replication, Vero E6 cells, 48 h post infection) was 304 µM.
